System: MDA-MB-231
Experiment: Antiproliferative activity against human MDA-MB-231 cells assessed as reduction in cell proliferation incubated for 72 hrs by CellTiter-Glo reagent based assay
Type: functional
Conditions: MDA-MB-231, 72 h

| Compound | IC50 [nM] |
| --- | --- |
| COc1ccc2c(n1)O[C@@]1(c3ccc(C#N)cc3)[C@H](c3ccccc3)[C@@H](C(=O)N(C)C)[C@@H](O)[C@@]21O (racemic) | > 1000 |
| COc1ccc([C@@]23Oc4cc(Cl)ccc4[C@]2(O)[C@H](O)[C@H](C(=O)N(C)C)[C@H]3c2ccccc2)cc1 (racemic) | 52 |
| CN(C)C(=O)[C@H]1[C@@H](O)[C@@]2(O)c3ncc(Cl)cc3O[C@@]2(c2ccc(C(F)F)cc2)[C@@H]1c1ccccc1 | 241 |
| CN(C)C[C@H]1[C@@H](O)[C@@]2(O)c3ncc(Cl)cc3O[C@@]2(c2ccc(C#N)cc2)[C@@H]1c1ccccc1 | 239 |
| CN(C)C(=O)[C@H]1[C@@H](O)[C@@]2(O)c3ncc(Cl)cc3O[C@@]2(c2ccc(OC(F)(F)F)cc2)[C@@H]1c1ccccc1 | 603 |
| CN(C)S(=O)(=O)[C@H]1[C@@H](O)[C@@]2(O)c3ncc(Cl)cc3O[C@@]2(c2ccc(C#N)cc2)[C@@H]1c1ccccc1 (racemic) | 304 |
| N#Cc1ccc([C@@]23Oc4cc(Cl)cnc4[C@]2(O)[C@H](O)[C@H](CO)[C@H]3c2ccccc2)cc1 (racemic) | 1460 |
| COc1ccc([C@@]23Oc4cc(OC)ccc4[C@]2(O)[C@H](O)[C@H](C(=O)N(C)C)[C@H]3c2ccccc2)cc1 (racemic) | 198 |
| COc1nccc2c1[C@]1(O)[C@H](O)[C@H](C(=O)N(C)C)[C@@H](c3ccccc3)[C@]1(c1ccc(C#N)cc1)O2 (racemic) | 314 |
| CN(C)C(=O)[C@H]1[C@@H](O)[C@@]2(O)c3ccc(C#N)cc3O[C@@]2(c2ccc(C#N)cc2)[C@@H]1c1ccccc1 (racemic) | 26 |
| Cc1ccc([C@@]23Oc4cc(Cl)cnc4[C@]2(O)[C@H](O)[C@H](C(=O)N(C)C)[C@H]3c2ccccc2)cc1 | 143 |
| N#Cc1ccc([C@@]23Oc4cc(Cl)cnc4[C@]2(O)[C@H](O)C[C@H]3c2ccccc2)cc1 (racemic) | 670 |
| COc1ccc([C@@]23Oc4cc(OC)cnc4[C@]2(O)[C@H](O)[C@H](C(=O)N(C)C)[C@H]3c2ccccc2)cc1 (racemic) | 990 |
| N#Cc1ccc([C@@]23Oc4cc(Cl)cnc4[C@]2(O)[C@H](O)[C@H](c2ncco2)[C@H]3c2ccccc2)cc1 (racemic) | 236 |
| CN(C)C(=O)[C@H]1[C@@H](O)[C@@]2(O)c3cnc(C#N)cc3O[C@@]2(c2ccc(C#N)cc2)[C@@H]1c1ccccc1 | 308 |
| CN(C)C(=O)[C@H]1[C@@H](O)[C@@]2(O)c3ncc(Cl)cc3O[C@@]2(c2ccc(S(C)(=O)=O)cc2)[C@@H]1c1ccccc1 | > 1000 |
| CN(C)C(=O)[C@H]1[C@@H](O)[C@@]2(O)c3ncc(Cl)cc3O[C@@]2(c2ccc(Cl)cc2)[C@@H]1c1ccccc1 | 160 |
| CN(C)C(=O)[C@H]1[C@@H](O)[C@@]2(O)c3ncc(Cl)cc3O[C@@]2(c2ccc(F)cc2)[C@@H]1c1ccccc1 | > 1000 |
| CN(C)C(=O)[C@H]1[C@@H](O)[C@@]2(O)c3ccc(Cl)cc3O[C@@]2(c2ccc(C#N)cc2)[C@@H]1c1ccccc1 (racemic) | 19 |
| CN(C)C(=O)[C@H]1[C@@H](O)[C@@]2(O)c3ncc(Cl)cc3O[C@@]2(c2ccc(C(F)(F)F)cc2)[C@@H]1c1ccccc1 | 320 |
| COc1cnc2c(c1)O[C@@]1(c3ccc(C#N)cc3)[C@H](c3ccccc3)[C@@H](C(=O)N(C)C)[C@@H](O)[C@@]21O | 159 |
| CS(=O)(=O)[C@H]1[C@@H](O)[C@@]2(O)c3ncc(Cl)cc3O[C@@]2(c2ccc(C#N)cc2)[C@@H]1c1ccccc1 | 3020 |
| COc1ccc([C@@]23Oc4cc(C#N)ccc4[C@]2(O)[C@H](O)[C@H](C(=O)N(C)C)[C@H]3c2ccccc2)cc1 (racemic) | 38 |
| COc1ccc([C@@]23Oc4cc(Cl)cnc4[C@]2(O)[C@H](O)[C@H](C(=O)N(C)C)[C@H]3c2ccccc2)cc1 | 283 |
| CNS(=O)(=O)[C@H]1[C@@H](O)[C@@]2(O)c3ncc(Cl)cc3O[C@@]2(c2ccc(C#N)cc2)[C@@H]1c1ccccc1 (racemic) | 2040 |
| CN(C)C(=O)[C@H]1[C@@H](O)[C@@]2(O)c3ncc(C#N)cc3O[C@@]2(c2ccc(C#N)cc2)[C@@H]1c1ccccc1 | 385 |

Source: ChEMBL document CHEMBL4613325, “Design of Development Candidate eFT226, a First in Class Inhibitor of Eukaryotic Initiation Factor 4A RNA Helicase” (J Med Chem, 2020)
